What all share (format): ADME, organism-based
Series [1] in a line: Volume of distribution at steady state in C57Bl/6 mouse at 1 mg/kg, iv as bolus dose by LC-MS/MS analysis. Conditions: in vivo, read-out: Vdss.
A short description of series [2]: Volume of distribution at steady state in Sprague-Dawley rat at 1 mg/kg, iv as bolus dose by LC-MS/MS analysis. The following applies: in vivo, read-out: Vdss.
Series [3] is described as follows: Half life in C57Bl/6 mouse at 1 mg/kg, iv as bolus dose by LC-MS/MS analysis. Conditions: in vivo.
Series [4] is described as follows: AUC in Sprague-Dawley rat at 3 mg/kg administered via oral gavage by LC-MS/MS analysis. Conditions: in vivo.
A short description of series [5]: Clearance in C57Bl/6 mouse at 1 mg/kg, iv as bolus dose by LC-MS/MS analysis. Conditions: in vivo.
Series [6] can be described thus: Clearance in Sprague-Dawley rat at 1 mg/kg, iv as bolus dose by LC-MS/MS analysis. Conditions: in vivo.
The nature of series [7]: Cmax in C57Bl/6 mouse at 3 mg/kg administered via oral gavage by LC-MS/MS analysis. Details: dose 3 mg/kg, route oral. The following applies: in vivo.
A short description of series [8]: Oral bioavailability in C57Bl/6 mouse at 3 mg/kg administered via oral gavage by LC-MS/MS analysis. Conditions: in vivo.
Series [9] can be described thus: AUC in C57Bl/6 mouse at 3 mg/kg administered via oral gavage by LC-MS/MS analysis. Conditions: in vivo.
The nature of series [10]: Cmax in Sprague-Dawley rat at 3 mg/kg administered via oral gavage by LC-MS/MS analysis. Details: dose 3 mg/kg, route oral. The following applies: in vivo.
The nature of series [11]: Half life in Sprague-Dawley rat at 1 mg/kg, iv as bolus dose by LC-MS/MS analysis. Conditions: in vivo.
Series [12] is described as follows: Oral bioavailability in Sprague-Dawley rat at 3 mg/kg administered via oral gavage by LC-MS/MS analysis. Conditions: in vivo.
A further series has as its system Mus musculus. As to the kind of experiment: fAUC in po dosed diet-induced obese C57 mouse administered as single dose 15 mins. The following applies: in vivo, 0.25 h.

Structures are written as SMILES.

The values below come from ChEMBL document CHEMBL3792350, “Discovery of a Potent and Orally Efficacious TGR5 Receptor Agonist” (ACS Med Chem Lett, 2016).

As to `COc1ccc(C(C)(C)c2cnc(SCCOc3ccc(-n4ccnc4)cc3)n2-c2ccc(F)cc2)cc1OC`, the Vd in series [1] is 0.83 L/kg; in [2], 2.05 L/kg. Besides, the half-life in [3] was 19.8 min; in series [11], 19.2 min. In addition, the area under the curve (AUC) in [4] was 207 ng·h/mL; in series [9], 754 ng·h/mL. The clearance in [5] was 47.3 mL/min/kg; in series [6], 79.7 mL/min/kg. Moreover, the Cmax in [7] turned out to be 789 ng/mL; in [10], 148 ng/mL. Besides, the bioavailability in series [8] came to 71%; in [12], 31%. In the series on Mus musculus, the fAUC came out at 231.38 ng·h/mL.
As to `COc1ccc(C(C)(C)c2cnc(SCc3c(F)cccc3Cl)n2-c2ccc(F)cc2)cc1OC`, in series [1], the Vd was found to be 1.54 L/kg. The same compound gave a half-life in [3] of 45.6 min. Moreover, the clearance in series [5] is 45.5 mL/min/kg. The compound further came in with a Cmax in series [7] of 51.8 ng/mL. Moreover, the bioavailability in series [8] worked out at 7%. The area under the curve (AUC) in series [9] was determined as 73.5 ng·h/mL.

The term half-life denotes how long it takes for the measured level to halve. High values mean slow decline, low ones rapid decline. In general, AUC refers to concentration integrated over time. A low value points to low exposure. Broadly, the clearance is the rate of elimination divided by the concentration. By Cmax is commonly meant the peak of the concentration-time curve. The term bioavailability denotes dose-corrected exposure relative to a reference, in per cent. Low readings indicate poor availability, high ones good availability.
